Values joined by “and” are separate entries in the source; they are usually repeats but may differ in a detail not shown here. Identical values can stand only once.
Key:
[1] = Nitrous oxide formed in the oxidation of 15NH2-labeled cyanamide by catalase/glucose-glucose oxidase using gas chromatography.
[2] = Nitrous oxide formed in the oxidation of U-labeled [N15]-cyanamide by catalase/glucose-glucose oxidase using gas chromatography
[3] = Nitrous oxide formed in the oxidation of unlabeled cyanamide by catalase/glucose-glucose oxidase using gas chromatography.

For `N#CN`, the N20 formed [1] was 186 nM, the N20 formed [2] was 538 nM and the N20 formed [3] was 497 nM and 440 nM.

— ChEMBL document CHEMBL1125018, “Evidence for nitroxyl in the catalase-mediated bioactivation of the alcohol deterrent agent cyanamide” (J Med Chem, 1990)
